“And” between values parts separate entries of the source, which are not always exact repeats. Equal entries are not always repeated. Where two headings read alike, the source gives them in different places.
Target: HIV-1 protease (Human immunodeficiency virus type 1 group M subtype B, UniProt P04585)
Assay: biochemical
Conditions: for inhibition at 0.123 µM: read-out: HIV-1 Protease % Inhib, dose 0.123 uM; for inhibition at 1 µM: read-out: HIV-1 Protease % Inhib, dose 1.000 uM; for inhibition at 100 µM: read-out: HIV-1 Protease % Inhib, dose 100.000 uM
Summary of the method: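 Percent inhibition derived from fluorescent cleavage product separated by filtration after streptavidin-bead capture of intact biotin/FITC substrate. Reaction: enzyme (10 μl, 0.1 μM stock) with substrate (20 μl, 0.2 μM stock) and compound, 1 h at room temperature in dark, pH 5.5 acetate buffer with 1.0 M NaCl and 0.05% NP-40.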

[1] = read-out: HIV-1 Protease % Inhib, dose 0.370 uM
[2] = read-out: HIV-1 Protease % Inhib, dose 1.100 uM
[3] = read-out: HIV-1 Protease % Inhib, dose 3.300 uM
[4] = read-out: HIV-1 Protease % Inhib, dose 10.000 uM
[5] = read-out: HIV-1 Protease % Inhib, dose 30.000 uM
[6] = dose 1.100 uM, read-out: HIV-1 Protease % Inhib
[7] = dose 3.300 uM, read-out: HIV-1 Protease % Inhib
[8] = dose 10.000 uM, read-out: HIV-1 Protease % Inhib
[9] = dose 30.000 uM, read-out: HIV-1 Protease % Inhib

## O=c1oc2c(c(O)c1C(c1cccc(NS(=O)(=O)c3cccc(Br)c3)c1)C1CC1)CCCCCC2 (stereo not shown) [Example 291, 3-Bromo-N-[3-[cyclopropyl(5,6,7,8,9,10-hexahydro-4-hydroxy-2-oxo-2H-cycloocta[b]pyran-3-yl)methyl]phenyl]-benzenesulfonamide]
  inhibition at 0.123 µM: 80.4%
[1]
  inhibition at 0.37 µM: 108%
[2]
  inhibition at 1.1 µM: 109%
[3]
  inhibition at 3.3 µM: 122%
[4]
  inhibition at 10 µM: 118%
[5]
  inhibition at 30 µM: 117%

## CC(c1cccc(C(=O)NCC(=O)OC(C)(C)C)c1)c1c(O)c2ccccc2oc1=O (stereo not shown) [Example 22, 4-Hydroxy-3-[1-[3-[[[(1,1-dimethylethoxycarbonyl)methyl]amino]carbonyl]phenyl]ethyl]-coumarin]
  inhibition at 1 µM: < 10%
  inhibition at 100 µM: 58.7%
[4]
  inhibition at 10 µM: < 10%

## C[C@@H](NC(=O)OC(C)(C)C)C(=O)Nc1cccc(C(c2c(O)c3c(oc2=O)CCCCCC3)C2CC2)c1 (stereo partly drawn) [Example 203, Carbamic acid, [2-[[3-[cyclopropyl(5,6,7,8,9,10-hexahydro-4-hydroxy-2-oxo-2H-cycloocta[b]pyran-3-yl)methyl]phenyl]amino]-1-(R)-methyl-2-oxyethyl]-, 1,1-dimethylethyl ester]
  inhibition at 0.123 µM: 15.6%
[1]
  inhibition at 0.37 µM: 55.8%
[2]
  inhibition at 1.1 µM: 81.3%
[3]
  inhibition at 3.3 µM: 94.3%
[4]
  inhibition at 10 µM: 104%
[5]
  inhibition at 30 µM: 94.3%

## O=c1oc2c(c(O)c1C(C1CC1)C1CC1)CCCCCC2 [Example 118, 3-(Dicyclopropylmethyl)-5,6,7,8,9,10-hexahydro-4-hydroxy-2H-cycloocta[b]pyran-2-one]
read-out: HIV-1 Protease % Inhib, dose 0.410 uM
  inhibition at 0.41 µM: 68.7%
read-out: HIV-1 Protease % Inhib, dose 1.230 uM
  inhibition at 1.23 µM: 87.9%
read-out: HIV-1 Protease % Inhib, dose 3.700 uM
  inhibition at 3.7 µM: 99%
read-out: HIV-1 Protease % Inhib, dose 11.000 uM
  inhibition at 11 µM: 110%
read-out: HIV-1 Protease % Inhib, dose 33.000 uM
  inhibition at 33 µM: 103%
  inhibition at 100 µM: 105%

## O=c1oc2c(c(O)c1C(c1ccc(NS(=O)(=O)c3cccc([N+](=O)[O-])c3)cc1)C1CC1)CCCCCC2 (stereo not shown) [Example 475, Benzenesulfonamide, 3-nitro-N-[4-[cyclopropyl (5,6,7,8,9,10-hexahydro-4-hydroxy-2-oxo-2H-cycloocta[b]pyran-3-yl)methyl]phenyl]-]
Dose 0.370 uM, read-out: HIV-1 Protease % Inhib
  inhibition at 0.37 µM: 11.8%
[6]
  inhibition at 1.1 µM: 27.9%
[7]
  inhibition at 3.3 µM: 84.1%
[8]
  inhibition at 10 µM: 103%
[9]
  inhibition at 30 µM: 110%

## CCC(c1ccccc1)c1c(O)c2ccccc2oc1=O (stereo not shown) [Example 105, 4-hydroxy-3-(1-phenylpropyl)-coumarin]
read-out: HIV-1 Protease IC50
  IC50: 4.88 µM and 3.88 µM

## CCCOc1ccc2c(O)c(C(CC)c3ccccc3)c(=O)oc2c1 (stereo not shown) [Example 169, Coumarin, 4-hydroxy-3-(1-phenylpropyl)-7-propoxy]
[2]
  inhibition at 1.1 µM: 13.1%
[3]
  inhibition at 3.3 µM: 44.4%
[4]
  inhibition at 10 µM: 76.8%
[5]
  inhibition at 30 µM: 99.9%

## COCCOCCC1CCCCc2c1oc(=O)c(C(c1ccccc1)C1CC1)c2O (stereo not shown) [Example 180, 3-(Cyclopropylphenylmethyl)-6,7,8,9-tetrahydro-4-hydroxy-9-[2-(2-methoxyethoxy)ethyl]-cyclohepta[b]pyran-2(5H)-one]
[6]
  inhibition at 1.1 µM: 31.3%
[7]
  inhibition at 3.3 µM: 67.7%
[8]
  inhibition at 10 µM: 94.1%
[9]
  inhibition at 30 µM: 109%

## CCC(c1ccccc1)c1c(O)c2ccc(OC)cc2oc1=O (stereo not shown) [Example 88, Coumarin, 4-hydroxy-7-methoxy-3-(. 1-phenylpropyl)-]
HIV-1 Protease IC50
  IC50: 1.52 µM and 1.6 µM and 2 µM
Dose 12.500 uM
  HIV-1 Protease % Inhib: 80.8%
Dose 100.000 uM
  HIV-1 Protease % Inhib: 117.82% and 92% and 93.5%
  inhibition at 1 µM: 80%
read-out: HIV-1 Protease % Inhib, dose 1.560 uM
  inhibition at 1.56 µM: 49.9%
read-out: HIV-1 Protease % Inhib, dose 1.570 uM
  inhibition at 1.57 µM: 41.7%
[4]
  inhibition at 10 µM: 108%
read-out: HIV-1 Protease % Inhib, dose 12.500 uM
  inhibition at 12.5 µM: 89.2%

## C=CS(=O)(=O)Nc1cccc(C(c2c(O)c3c(oc2=O)CCCCC3)C2CC2)c1 (stereo not shown) [Example 363, N-[3-[Cyclopropyl(2,5,6,7,8,9-hexahydro-4-hydroxy-2-oxocyclohepta[b]pyran-3-yl)methyl]phenyl]-ethenesulfonamide]
[6]
  inhibition at 1.1 µM: 21.5%
[7]
  inhibition at 3.3 µM: 58.8%
[8]
  inhibition at 10 µM: 84.8%
[9]
  inhibition at 30 µM: 107%

## Nc1ccc(S(=O)(=O)Nc2cccc(C(c3c(O)c4c(oc3=O)CCCCCC4)C3CC3)c2)cc1 (stereo not shown) [Example 348 (First Title Compound), 4-Amino-N-[3-[cyclopropyl(5,6,7,8,9,10-hexahydro-4-hydroxy-2-oxo-2H-cycloocta[b]pyran-3-yl)methyl]phenyl]-benzenesulfonamide]
  inhibition at 0.123 µM: 28.1%
[1]
  inhibition at 0.37 µM: 80.7%
[2]
  inhibition at 1.1 µM: 103%
[3]
  inhibition at 3.3 µM: 108%
[4]
  inhibition at 10 µM: 113%
[5]
  inhibition at 30 µM: 109%

## CC(c1cccc(C#N)c1)c1c(O)c2ccccc2oc1=O (stereo not shown) [Example 101, Coumarin, 3-[1-(3-Cyanophenyl)ethyl]-4-hydroxy-]
  inhibition at 1 µM: < 10%
  inhibition at 100 µM: 39.2%
[4]
  inhibition at 10 µM: < 10%

## CCCCOc1ccc(S(=O)(=O)Nc2cccc(C(c3c(O)c4c(oc3=O)CCCCCC4)C3CC3)c2)cc1 (stereo not shown) [Example 406, 4-Butoxy-N-[3-[cyclopropyl(5,6,7,8,9,10-hexahydro-4-hydroxy-2-oxo-2H-cycloocta[b]pyran-3-yl)methyl]phenyl]-benzenesulfonamide]
Dose 1.100 uM
  HIV-1 Protease % Inhib: 87.61%
Dose 3.300 uM
  HIV-1 Protease % Inhib: 85.17%
Dose 10.000 uM
  HIV-1 Protease % Inhib: 97.39%
Dose 30.000 uM
  HIV-1 Protease % Inhib: 97.21%
  inhibition at 0.123 µM: 37.1%
[1]
  inhibition at 0.37 µM: 69.4%

## N#Cc1ccc(S(=O)(=O)Nc2ccc(C(c3c(O)c4c(oc3=O)CCCCCC4)C3CC3)cc2)cc1 (stereo not shown) [Example 472, Benzenesulfonamide, 4-cyano-N-[4-[cyclopropyl (5,6,7,8,9,10-hexahydro-4-hydroxy-2-oxo-2H-cycloocta [b]pyran-3-yl)methyl]phenyl]-]
[7]
  inhibition at 3.3 µM: 15.5%
[8]
  inhibition at 10 µM: 82.2%
[9]
  inhibition at 30 µM: 110%

## CCC(c1c(O)c2ccccc2oc1=O)c1cccc2ccccc12 (stereo not shown) [Example 20, 4-Hydroxy-3-(1-(1-naphthyl)-propyl)-coumarin]
  inhibition at 1 µM: < 10%
  inhibition at 100 µM: 79.8%
[4]
  inhibition at 10 µM: 20.3%

## O=c1oc2c(c(O)c1C(c1cccc(N(CCc3ccccc3)S(=O)(=O)c3ccccc3)c1)C1CC1)CCCCCC2 (stereo not shown) [Example 246, N-[3-[cyclopropyl(5,6,7,8,9,10-hexahydro-4-hydroxy-2-oxo-2H-cycloocta[b]pyran-3-yl)methyl]phenyl]-N-(2-phenylethyl)-benzenesulfonamide]
[8]
  inhibition at 10 µM: 26.6%
[9]
  inhibition at 30 µM: 49.7%

## CCC(c1cccc(NC(=O)OCc2ccccc2)c1)c1c(O)c2c(oc1=O)CCCCCC2 (stereo not shown) [Example 217, Carbamic Acid, [3-[1-(5,6,7,8,9,10-hexahydro-4-hydroxy-2-oxo-2H-cycloocta[b]pyran-3-yl)propyl]phenyl]-, phenyl methyl ester]
[7]
  inhibition at 3.3 µM: 31.6%
[8]
  inhibition at 10 µM: 64.2%
[9]
  inhibition at 30 µM: 72.9%

## O=c1oc2c(c(O)c1C(c1cccc(NS(=O)(=O)c3cccc4ccccc34)c1)C1CC1)CCCCCC2 (stereo not shown) [Example 270, N-[3-[Cyclopropyl(5,6,7,8,9,10-hexahydro4-hydroxy-2-oxo-2H-cycloocta[b]pyran-3-yl)methyl]phenyl]-1-naphthalenesulfonamide]
  inhibition at 0.123 µM: 61.7%
[1]
  inhibition at 0.37 µM: 93.1%
[2]
  inhibition at 1.1 µM: 107%
[3]
  inhibition at 3.3 µM: 111%
[4]
  inhibition at 10 µM: 116%
[5]
  inhibition at 30 µM: 115%

## O=c1oc2ccccc2c(O)c1C1CCOc2ccccc21 (stereo not shown) [Example 158, 4-Hydroxy-3',4'-dihydro-2'H-[3,4]bichromenyl-2-one]
  inhibition at 1 µM: < 10%
  inhibition at 100 µM: 93.4%
[4]
  inhibition at 10 µM: 26.7%

Source: patent publication US5686486A, “4-hydroxy-benzopyran-2-ones and 4-hydroxy-cycloalkyl[b]pyran-2-ones useful to treat retroviral infections” (priority 1995, dated 1997)
